Measured values published in publication PMC12006963, “Application of Deuterium in an M1 Positive Allosteric Modulator Back-Up Program: The Discovery of VU6045422” (ACS Chemical Neuroscience, 2025).
Residue numbers refer to the chain shown, from its start. Like-named read-outs stand apart in the source and are kept apart here.

Experiments:
[1] = Hepatocyte metabolite identification (rat); type: in vitro ADME; conditions: rat hepatocytes, 4 h incubation
Description: (§1) Prior to full characterization of deuterated analogues 3 and 5, they were incubated in rat, dog, monkey, and human hepatocytes, along with 1, to determine the amount of parent remaining, as well as the degree of undesired oxidative metabolites 2, 4, and 6 (Figure 2). […] For the gem-dideutero congener 3, metabolic stability was improved in vitro. […] Thus, in hepatocytes in vitro, the kinetic isotope effect engendered greater metabolic stability of the labile hot spot on the lactam. It remained to be seen if this effect would translate in vivo, but we first had to assess the impact of the deuterated analogues on molecular pharmacology, in vitro DMPK, standard low-dose in vivo DMPK and, if warranted, in vivo efficacy in a rat novel object recognition (NOR) behavioral assay.

[2] = molecular target: CYP 2D6 (Homo sapiens, UniProt P10635); test: CYP inhibition 2D6; type: in vitro ADME
Chain of CYP 2D6 (P10635 whole entry): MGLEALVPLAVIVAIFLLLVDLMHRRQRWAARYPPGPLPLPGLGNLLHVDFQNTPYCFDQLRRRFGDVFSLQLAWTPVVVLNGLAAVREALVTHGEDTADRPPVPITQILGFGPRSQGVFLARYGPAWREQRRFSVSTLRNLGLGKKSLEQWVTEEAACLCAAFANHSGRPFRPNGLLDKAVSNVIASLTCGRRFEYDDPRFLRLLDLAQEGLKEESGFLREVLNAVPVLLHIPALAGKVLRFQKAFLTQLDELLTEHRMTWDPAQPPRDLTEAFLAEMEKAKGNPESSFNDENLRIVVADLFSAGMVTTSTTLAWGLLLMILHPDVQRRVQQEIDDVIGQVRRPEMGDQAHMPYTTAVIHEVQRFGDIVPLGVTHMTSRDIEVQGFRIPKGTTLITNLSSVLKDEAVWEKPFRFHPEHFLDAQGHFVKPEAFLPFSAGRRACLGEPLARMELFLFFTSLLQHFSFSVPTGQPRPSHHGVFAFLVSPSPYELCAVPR
Source text: Table 1 Pharmacology and In Vitro DMPK Profiles of M1 PAMs 1, 3, and 5 | column: 1; 3; 5

[3] = molecular target: T1, M1 (Homo sapiens, UniProt P11229); test: Calcium mobilization, human M1 CHO cells (agonist and PAM modes); type: cell-based; conditions: for M1 agonism: in words
T1 construct: expressed in transfected cells
T1 sequence (P11229 1-460): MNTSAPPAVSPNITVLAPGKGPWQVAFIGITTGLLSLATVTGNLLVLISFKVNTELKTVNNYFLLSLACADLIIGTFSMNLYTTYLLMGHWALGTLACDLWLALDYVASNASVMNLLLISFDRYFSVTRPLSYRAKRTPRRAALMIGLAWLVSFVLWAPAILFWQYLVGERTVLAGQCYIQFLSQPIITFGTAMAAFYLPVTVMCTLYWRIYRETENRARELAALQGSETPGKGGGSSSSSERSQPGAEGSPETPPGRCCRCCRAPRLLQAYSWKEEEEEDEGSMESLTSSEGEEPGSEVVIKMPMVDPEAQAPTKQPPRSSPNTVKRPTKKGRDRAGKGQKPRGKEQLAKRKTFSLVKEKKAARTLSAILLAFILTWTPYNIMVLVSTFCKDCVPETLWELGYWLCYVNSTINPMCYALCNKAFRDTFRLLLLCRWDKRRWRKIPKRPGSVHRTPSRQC

[4] = Hepatocyte metabolite identification (dog); type: in vitro ADME; conditions: dog hepatocytes, 4 h incubation
Description: as §1

[5] = molecular target: T2, rM1 (Rattus norvegicus, UniProt P08482); test: Calcium mobilization, rat M1 (agonist and PAM modes); type: cell-based
T2 sequence (P08482 1-460): T1 sequence (P11229 1-460) with A5V, T254S, P309S, R320K, A337G, I413V

[6] = Hepatocyte metabolite identification (monkey); type: in vitro ADME; conditions: monkey hepatocytes, 4 h incubation
Description: as §1

[7] = PAM mode, read-out: hM1 PAM EC50
[8] = agonist mode, read-out: hM1 Agonist EC50
[9] = PAM mode, read-out: rM1 PAM EC50
[10] = agonist mode, read-out: rM1 Agonist EC50

Structure (SMILES): [2H]C1([2H])c2ncccc2C(=O)N1Cc1c(F)cc(-c2cccc3nn(C)cc23)cc1F [compound 3]
- % Total Peak Area, parent remaining [1]: 87.0%
- IC50 [2]: > 30000 nM
- hM1 PAM AChmax (%) [3]: 81%
- EC50 [3, 7]: 624 nM
- EC50 [3, 8]: > 30000 nM
- M1 agonism [3]: minimal M1 agonism
- hM1 PAM AChmax (%) (pEC50 line) ([3]; mean ± spread): 78±2.2%
- % Total Peak Area, parent remaining [4]: 91.9%
- rM1 PAM AChmax (%) [5]: 85%
- EC50 [5, 9]: 361 nM
- EC50 [5, 10]: > 30000 nM
- % Total Peak Area, parent remaining [6]: 58.5%

Structure (SMILES): [2H]C1([2H])c2ncccc2C(=O)N1Cc1c(F)cc(-c2cccc3nn(C([2H])([2H])[2H])cc23)cc1F [compound 5]
- % Total Peak Area, parent remaining [1]: 87.7%
- IC50 [2]: > 30000 nM
- hM1 PAM AChmax (%) [3]: 80%
- EC50 [3, 7]: 192 nM
- EC50 [3, 8]: > 30000 nM
- M1 agonism [3]: minimal M1 agonism
- hM1 PAM AChmax (%) (pEC50 line) ([3]; mean ± spread): 82±1.8%
- EC50 ([3]; mean ± spread, n in cell, read-out: hM1 PAM pEC50 (converted)): 182 nM
- % Total Peak Area, parent remaining [4]: 87.8%
- rM1 PAM AChmax (%) [5]: 82%
- EC50 [5, 9]: 249 nM
- EC50 [5, 10]: > 30000 nM
- % Total Peak Area, parent remaining [6]: 60.5%

Structure (SMILES): Cn1cc2c(-c3cc(F)c(CN4Cc5ncccc5C4=O)c(F)c3)cccc2n1 [compound 1]
- % Total Peak Area, parent remaining [1]: 76.3%
- IC50 [2]: > 30000 nM
- hM1 PAM AChmax (%) [3]: 80%
- EC50 [3, 7]: 492 nM
- EC50 [3, 8]: > 30000 nM
- hM1 PAM AChmax (%) (pEC50 line) ([3]; mean ± spread): 71±9.9%
- % Total Peak Area, parent remaining [4]: 71.7%
- rM1 PAM AChmax (%) [5]: 79%
- EC50 [5, 9]: 213 nM
- EC50 [5, 10]: > 30000 nM
- % Total Peak Area, parent remaining [6]: 25.8%
